Data published in patent US20240252581A1, “COMPOSITIONS AND METHODS FOR TREATING RESPIRATORY DISTRESS” (S.I.S. SHULOV INNOVATIVE SCIENCE LTD., priority 2021, published 2024).
Values joined by “and” are separate entries in the source; they are usually repeats but may differ in a detail not shown here. Equal entries are not always repeated. “Also recorded” adds a separate entry of the source. Square brackets hold non-standard residues; d marks the D form. Peptide text beside a SMILES is read from it. * marks the point of attachment. pGlu = O=C1CC[C@@H](C(=O)O)N1; Octanoyl = CCCCCCCC(=O)*

System: B cells, T cells, eosinophils, neutrophils, macrophages/dendritic cells in BALF
Assay: LPS-induced acute lung injury / ARDS mouse model: BALF differential cell count by FACS
Format: in vivo, BALB/c mice
Conditions: for B cells (%) / Eosinophils (%) / Macrophages & dendritic cells (%) / Neutrophils (%) / T cells (%): BALF
Description: In order to test the efficacy of ZEP3 sodium on lung inflammation, the lipopolysaccharide (LPS)-induced acute lung injury model was used. In particular, LPS was administered intratracheally at doses of 10 or 40 mg/kg body weight (BW) corresponding to 0.2 or 0.8 mg/mouse, respectively.
ZEP3 sodium was administered by inhalation (INH) at doses of 25 or 250 mg/kg BW (0.5 or 5 mg/mouse, respectively), or intratracheally (IT) at doses of 5 or 20 mg/kg BW (0.1 or 0.4 mg/mouse, respectively) 6 hours after LPS administration and its effect was measured 72 hours following administration in the branchial alveolar fluid (BALF) using FACS instrumentation. […]

[1] = Group 2: ZEP3Na 0.1 mg IT, no LPS, group mean
[2] = Group 2: ZEP3Na 0.1 mg IT, no LPS, individual mice
[3] = Group 3: ZEP3Na 0.4 mg IT, no LPS, group mean
[4] = Group 3: ZEP3Na 0.4 mg IT, no LPS, individual mice
[5] = Group 4: LPS 0.8 mg + ZEP3Na 0.1 mg IT, group mean
[6] = Group 4: LPS 0.8 mg + ZEP3Na 0.1 mg IT, individual mice
[7] = Group 5: LPS 0.8 mg + ZEP3Na 0.4 mg IT, group mean
[8] = Group 5: LPS 0.8 mg + ZEP3Na 0.4 mg IT, individual mice
[9] = Group 8: LPS 0.2 mg + ZEP3Na 0.1 mg IT, group mean

CCCCCCCC(=O)NCCCC[C@H](NC(=O)[C@H](Cc1c[nH]c2ccccc12)NC(=O)[C@H](CC(N)=O)NC(=O)[C@@H]1CCC(=O)N1)C(=O)O [ZEP3Na, pGlu-Asn-Trp-Lys(Octanoyl)-ONa] ([pGlu]NWK(Octanoyl)-OH)
bronchoalveolar eosinophils percentage (0.2 mg LPS, ZEP3Na 0.1 and 0.4 mg, compared to untreated mice that received 0.2 mg LPS): significant decrease; also recorded: significantly inhibited | B cells (%) [1]: 0.163% | Eosinophils (%) [1]: 0.412% | Macrophages & dendritic cells (%) [1]: 66.715% | Neutrophils (%) [1]: 6.816% | T cells (%) [1]: 3.078% | B cells (%) [2]: 0.320% and 0.208% and 0.091% and 0.218% and 0.150% and 0.089% and 0.103% and 0.162% and 0.147% and 0.138% | Eosinophils (%) [2]: 0.192% and 0.556% and 0.185% and 0.196% and 0.692% and 0.058% and 0.261% and 0.828% and 0.606% and 0.546% | Macrophages & dendritic cells (%) [2]: 69.267% and 65.626% and 66.568% and 65.527% and 65.957% and 70.380% and 68.287% and 64.068% and 65.131% and 66.345% | Neutrophils (%) [2]: 8.302% and 7.056% and 4.882% and 7.770% and 5.279% and 3.207% and 3.871% and 12.158% and 8.592% and 7.044% | T cells (%) [2]: 3.447% and 3.524% and 4.627% and 2.747% and 2.636% and 1.788% and 2.856% and 2.681% and 3.118% and 3.354% | B cells (%) [3]: 0.176% | Eosinophils (%) [3]: 0.277% | Macrophages & dendritic cells (%) [3]: 72.219% | Neutrophils (%) [3]: 4.248% | T cells (%) [3]: 1.983% | B cells (%) [4]: 0.310% and 0.225% and 0.162% and 0.154% and 0.106% and 0.100% and 0.160% and 0.223% and 0.144% | Eosinophils (%) [4]: 0.151% and 0.400% and 0.136% and 0.176% and 0.138% and 0.390% and 0.192% and 0.540% and 0.366% | Macrophages & dendritic cells (%) [4]: 72.760% and 67.646% and 73.862% and 72.372% and 77.634% and 73.286% and 72.368% and 67.355% and 72.688% | Neutrophils (%) [4]: 3.325% and 7.965% and 2.600% and 3.496% and 2.405% and 3.740% and 3.111% and 7.438% and 4.152% | T cells (%) [4]: 2.519% and 3.322% and 1.247% and 1.675% and 1.513% and 1.348% and 1.817% and 2.755% and 1.654% | B cells (%) [5]: 0.164% | Eosinophils (%) [5]: 0.833% | Macrophages & dendritic cells (%) [5]: 20.180% | Neutrophils (%) [5]: 59.048% | T cells (%) [5]: 2.194% | B cells (%) [6]: 0.118% and 0.102% and 0.048% and 0.030% and 0.045% and 0.489% and 0.052% and 0.572% and 0.017% | Eosinophils (%) [6]: 0.170% and 0.064% and 1.024% and 0.755% and 0.646% and 3.005% and 0.568% and 0.840% and 0.425% | Macrophages & dendritic cells (%) [6]: 71.986% and 72.475% and 1.316% and 0.956% and 1.424% and 16.916% and 1.107% and 14.732% and 0.713% | Neutrophils (%) [6]: 6.007% and 2.454% and 77.259% and 86.115% and 82.630% and 57.391% and 82.523% and 54.903% and 82.147% | T cells (%) [6]: 0.991% and 1.527% and 0.804% and 0.573% and 0.865% and 5.340% and 0.937% and 8.033% and 0.675% | B cells (%) [7]: 0.054% | Eosinophils (%) [7]: 0.475% | Macrophages & dendritic cells (%) [7]: 12.756% | Neutrophils (%) [7]: 67.517% | T cells (%) [7]: 0.895% | B cells (%) [8]: 0.014% and 0.011% and 0.028% and 0.024% and 0.167% and 0.138% and 0.026% and 0.022% | Eosinophils (%) [8]: 0.303% and 0.448% and 0.323% and 0.298% and 1.427% and 0.195% and 0.530% and 0.280% | Macrophages & dendritic cells (%) [8]: 0.470% and 0.297% and 0.271% and 0.442% and 30.597% and 68.407% and 0.798% and 0.764% | Neutrophils (%) [8]: 77.586% and 88.700% and 84.629% and 80.400% and 39.818% and 3.154% and 84.929% and 80.922% | T cells (%) [8]: 0.383% and 0.495% and 0.512% and 0.577% and 1.800% and 2.098% and 0.609% and 0.685% | B cells (%) [9]: 0.097% | Eosinophils (%) [9]: 0.210% | Macrophages & dendritic cells (%) [9]: 2.327% | Neutrophils (%) [9]: 79.428% | T cells (%) [9]: 1.662%
